Measurements: PubChem BioAssay (NCI)
Where “and” joins values, the source holds several entries; their conditions need not be identical. Equal entries are not always repeated.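 Five concentrations, 48 hours, 96-well plates. GI50: concentration for 50% inhibition of growth. TGI is the concentration that stops growth completely.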

What follows are compounds tested on MDA-MB-468 breast (assay: NCI tumour cell line growth inhibition, 48 h).

Row | Compound | GI50 | TGI
1 | Cn1cc(C2=C(c3cccc(Cl)c3)C(=O)NC2=O)c2ccccc21 | 4480 nM | 24.6 µM
2 | CCN(CC)CCn1nc2c3c(cccc3c1=O)-c1ccccc1-2 | 2220 nM | 8.43 µM
3 | Cc1cccc(Cc2cnc(NC(=O)/C=C/c3ccco3)s2)c1 | 40.7 nM | 13.2 µM
4 | COC(=O)[C@@H](C)C[C@H](Cc1ccccc1)NC(=O)c1csc([C@@H](C[C@H](C(C)C)N(C)C(=O)[C@@H](NC(=O)CN(C)C)C2CC2)OC(C)=O)n1 | 6.58 nM | –
5 | CCOC(=O)Nc1ccc2nc(Sc3ccc(Cl)cc3)sc2c1 | 719 nM | 3.67 µM
6 | CCN(Cc1cccc(C)c1)c1ccc(CO)c(Cl)c1 | 36.2 nM | 0.134 µM
7 | O=C(Nc1ccc(I)cc1F)c1cc(F)ccc1O | 898 nM | 5.3 µM
8 | O=C(Nc1ccc(Oc2cccc(Cl)c2)c(Cl)c1)c1cccnc1 | 565 nM | 4.15 µM
9 | COc1cc2cc(Oc3ccc(NC(=O)Nc4cc(C(F)(F)F)cc(C(F)(F)F)c4)cc3)c(C)nc2cc1OCCN1CCCCC1 | 1670 nM | 3.32 µM
10 | c1ccc(-c2nn(-c3ccccc3)[n+](-c3ccccc3-c3ccccc3)n2)cc1 | 189 nM | 0.923 µM
11 | Cn1ccnc1C(=O)/C=C/c1ccc(CC(=O)Nc2cc(F)c(F)c(F)c2)cc1 | 636 nM | 1.96 µM
12 | COc1cc(C2CC(c3cc(Cl)c(C)cc3O)=NN2c2ccc(S(N)(=O)=O)cc2)cc(OC)c1OC (stereo not given) | 2640 nM | 9.07 µM
13 | CCCCOc1nc2ccccc2cc1C1CNC(=O)c2ccccc2N1 (stereo not given) | 2030 nM | 9.56 µM
14 | CN1CCN(Cc2ccc(NC(=O)c3cncc(C#Cc4cncc5[nH]ncc45)c3)cc2C(F)(F)F)CC1 | 1080 nM | 4.08 µM
15 | NC(=S)c1cn(C2OC(CO)C(O)C2O)c2ncnc(N)c12 (stereo not given) | 58.9 nM | 0.252 µM
16 | O=C(N/N=C\c1cc(Br)cc(Br)c1O)N/N=C/c1cc(Br)cc(Br)c1O | 3130 nM | 8.85 µM
17 | COC(=O)C1=C(C)NC(C)=C(C(=O)OC)C1c1ccccc1[N+](=O)[O-] | 25300 nM | > 100 µM
18 | Cc1cncc2cccc(S(=O)(=O)N3CCCNC[C@@H]3C)c12 | 19000 nM | > 91.1 µM
19 | Nc1ncn(C2OC(CO)C(O)C2O)c(=O)n1 (stereo not given) | 1210 nM and 925 nM | 6.45 µM and 8.06 µM
20 | O=C(c1nc2ccccc2[nH]1)C1C(c2cccc([N+](=O)[O-])c2)C2CC3CCCCC3N2[C@@]12C(=O)Nc1cc(Cl)ccc12 (stereo not given in full) | 1390 nM | 4 µM
21 | Fc1ccc(-c2ncn(C3CCNCC3)c2-c2ccnc(Oc3ccc(Oc4ccccc4)cc3)n2)cc1 | 1940 nM | 5.57 µM

Row | Compound | GI50 | TGI
22 | CCN1CCN(c2nc(NNC(=O)c3cccc(OC)c3)nc(N3CCN(C(c4ccccc4)c4ccccc4)CC3)n2)CC1 | 1910 nM | 4.92 µM
23 | Clc1ccc2c(NCCNc3nc(Cl)nc4ccccc34)ccnc2c1 | 583 nM | 2.03 µM
24 | Cc1cc2nc3c4cc(Cl)ccc4n(CC(=O)NCCN(C)C)c3nc2cc1C | 11300 nM | 23.8 µM
25 | COc1ccc(C2C3=C(COC3=O)N(CCO)c3cc4c(cc32)CCC4)cc1OC (stereo not given) | 184 nM | –
26 | H-KIFKKFKTIIKKVWRIFGRF-NH2 | 1320 nM | 5.94 µM
27 | CO[C@H]1/C=C/C=C/C=C/C[C@H](OC(=O)[C@@H](C)NC(=O)C2CCCCC2)[C@H](C)[C@@H](O)/C(C)=C\CCC2=CC(=O)C=C(NC(=O)C1)C2=O | 142 nM | 0.74 µM
28 | CCN(CC)c1ccc(/C=C2/NC(=O)NC2=O)cc1 | 981 nM | 7.84 µM
29 | COc1ccc(Nc2ccnc3cc(Cl)ccc23)cc1CN(CCCl)CCCl | 195 nM | 0.84 µM
30 | Cn1cc(-c2nnc(N)nc2-c2c[nH]c3ccc(F)cc23)c2cc(Br)ccc21 | 1240 nM | 7.75 µM
31 | Cn1cc(C2=C(c3cn(C)c4cc(Cl)ccc34)C(=O)NC2=O)c2ccccc21 | 74.4 nM | 5.96 µM
32 | COc1ccc(C(=O)C(CN(C)C)c2ccccc2)cc1 (stereo not given) | 1930 nM | 4.96 µM
33 | O=C(CN1CCN(c2cc3c(cc2F)c(=O)c(C(=O)O)cn3C2CC2)CC1)Nc1ccc(C(=O)/C=C/c2ccccc2)cc1 | 2450 nM | 23.2 µM
34 | Nc1ccc(Sc2ccc3c4c2cccc4c(=O)n2c4ccccc4nc32)cc1 | 3190 nM | 20.8 µM
35 | CCn1c(-c2nonc2N)nc2c(C#CC(C)(C)O)ncc(OCC3CCNCC3)c21 | 336 nM | > 25 µM
36 | Cc1ccc(/C=C2\CN(C(=O)CCN3CCC(=NO)CC3)C/C(=C\c3ccc(C)cc3)C2=O)cc1 | 1460 nM | 3.46 µM
37 | N#CCCCCCn1c2ccccc2c2c3c(c4c5ccccc5[nH]c4c21)C(=O)N(O)C3=O | 1480 nM | 5.98 µM
38 | CC(=O)O[C@H]1Cc2c([nH]c3ccccc23)[C@@H](c2ccc(Cl)cc2)N1C(=O)CCNC(C)(C)C | 3180 nM | 7.67 µM
39 | Nc1cc2ccncc2c2ccccc12 | 12300 nM | 36.5 µM
40 | CCc1cc(Nc2nccc(-c3c(-c4ccc(OC)c(C(=O)Nc5c(F)cccc5F)c4)nc4ccccn34)n2)c(OC)cc1N1CCC(N2CCN(S(C)(=O)=O)CC2)CC1 | > 82700 nM | > 100 µM
41 | CCN(CC)Cc1cc(Nc2c3ccc(Cl)cc3nc3c(C)cccc23)ccc1O | 1370 nM | 2.83 µM
